According to US8450313B2, “2,3-diaryl- or heteroaryl-substituted 1,1,1-trifluoro-2-hydroxypropyl compounds” (Hoffmann-La Roche Inc., priority 2009, dated 2013):
pKi: −log10 of the molar value.

Molecular target: T1, full length human recombinant glucocorticoid receptor (Homo sapiens, UniProt P04150)
T1 construct: It contains some partially purified full length human recombinant glucocorticoid receptor; purchased Panvera/Invitrogen PV4302
T1 sequence (P04150 1-777): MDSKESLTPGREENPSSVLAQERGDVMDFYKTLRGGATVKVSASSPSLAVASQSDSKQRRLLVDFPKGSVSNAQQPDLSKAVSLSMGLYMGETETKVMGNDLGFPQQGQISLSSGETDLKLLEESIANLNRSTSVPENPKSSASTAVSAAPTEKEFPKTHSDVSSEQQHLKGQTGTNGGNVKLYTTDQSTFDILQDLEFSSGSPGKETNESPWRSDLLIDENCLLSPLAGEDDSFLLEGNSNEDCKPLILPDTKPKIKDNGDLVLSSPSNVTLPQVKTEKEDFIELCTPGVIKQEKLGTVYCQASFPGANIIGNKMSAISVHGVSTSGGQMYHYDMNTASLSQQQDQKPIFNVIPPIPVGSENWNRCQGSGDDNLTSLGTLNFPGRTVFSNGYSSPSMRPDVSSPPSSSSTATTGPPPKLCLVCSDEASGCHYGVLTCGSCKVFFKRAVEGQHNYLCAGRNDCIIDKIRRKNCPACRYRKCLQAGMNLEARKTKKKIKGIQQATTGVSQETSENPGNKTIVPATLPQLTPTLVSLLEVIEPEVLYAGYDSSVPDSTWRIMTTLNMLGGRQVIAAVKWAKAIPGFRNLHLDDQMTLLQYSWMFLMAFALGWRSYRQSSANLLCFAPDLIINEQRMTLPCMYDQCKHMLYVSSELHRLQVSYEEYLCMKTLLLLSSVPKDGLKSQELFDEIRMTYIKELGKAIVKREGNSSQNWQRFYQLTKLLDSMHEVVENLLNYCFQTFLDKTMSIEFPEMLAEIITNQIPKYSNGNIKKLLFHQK
Assay: Glucocorticoid Receptor Binding Assay (Glucocorticoid Receptor Competitor Assay far red kit, fluorescence polarization)
Conditions: competition with fluorescent GR ligand Fluormone GS Far Red, 3 hours at 22° C., pH 7.4; Ki calculated from IC50 by Cheng-Prusoff
Method: Glucocorticoid Receptor Binding Assay
The ability of the substances to bind to the glucocorticoid receptor was determined with the help of a commercial Glucocorticoid Receptor Competitor Assay far red kit provided by Panvera/Invitrogen (PV4302). This kit is used as provided by the supplier. It contains some partially purified full length human recombinant glucocorticoid receptor, a coactivator related GR stabilizing peptide, a tight-binding fluorescent GR ligand Fluormone™ GS Far Red as labeled tracer and a screening buffer. All reagents are prepared and the assay is run according to the recommendations of the kit manufacturer.
Briefly, the GR stabilizing peptide and the human recombinant glucocorticoid receptor are both diluted with the screening buffer (pH 7.4) and are gently mixed (no vortexing) just before the assay and kept on ice until use. The fluorescent-labeled ligand is also diluted with the screening buffer just before the assay and kept on ice until use. The substances to test are pre-diluted in pure DMSO then some water is added to get an intermediate 4.2% DMSO stock solution. Ten microliter of the intermediate stock solution is gently mixed with 5 μA of diluted fluorescent-labeled ligand and 5 μl of diluted human recombinant glucocorticoid receptor in a 384-well plate (low volume, ultraclear, glass plate from Greiner ref 788896). The plate is centrifuged, sealed and incubated for 3 hours at 22° C. in the dark. The polarized fluorescence is measured with a Zeiss-HTS reader or any equivalent equipment (610-660 nm).
All compounds were tested to determine IC50 in a serial dilution experiment. The concentration at which 50% inhibition of the fluorescent GR ligand Fluormone™ GS Far Red is obtained (the IC50) is determined after fitting with a sigmoidal dose-response model of a plot of the logarithm of the concentration versus percent inhibition measured for the different concentrations. Ki's were calculated from IC50 based on Cheng-Prusoff equation (Cheng, Y, Prusoff, W H (1973) Biochem Pharmacol 22, 3099-3108): Ki=IC50/[1+D/Kd] wherein D is the concentration of the fluorescent ligand and Kd is the binding constant for the fluorescent ligand binding to the receptor under the conditions used in the competition experiment.

Row | pKi | SMILES
1 | 8.12 | C[C@@H](c1ccc(-c2ccc(CCC(=O)O)cc2)cc1Cl)[C@](O)(c1ccc2c(c1)N(C)C(=O)CO2)C(F)(F)F (relative stereo) [Example 29, 3-{3′-Chloro-4′-[3,3,3-trifluoro-2-hydroxy-1-methyl-2-(4-methyl-3-oxo-3,4-dihydro-2H-benzo[1,4]oxazin-6-yl)-propyl]-biphenyl-4-yl}-propionic acid]
2 | 8.70 | COC(=O)c1ccc(-c2ccc([C@H](C)[C@](O)(c3ccc4c(c3)N(C)C(=O)CO4)C(F)(F)F)c(Cl)c2)cc1Cl (relative stereo) [Example 30, 3,3′-Dichloro-4′-[3,3,3-trifluoro-2-hydroxy-1-methyl-2-(4-methyl-3-oxo-3,4-dihydro-2H-benzo[1,4]oxazin-6-yl)-propyl]-biphenyl-4-carboxylic acid methyl ester]
3 | 8.51 | C[C@@H](c1ccc(-c2ccc(C(=O)O)c(Cl)c2)cc1Cl)[C@](O)(c1ccc2c(c1)N(C)C(=O)CO2)C(F)(F)F (relative stereo) [Example 31, 3,3′-Dichloro-4′-[3,3,3-trifluoro-2-hydroxy-1-methyl-2-(4-methyl-3-oxo-3,4-dihydro-2H-benzo[1,4]oxazin-6-yl)-propyl]-biphenyl-4-carboxylic acid]
4 | 8.89 | C[C@@H](c1ccc(-c2ccc(F)c(C(=O)O)c2)cc1Cl)[C@](O)(c1ccc2c(c1)N(C)C(=O)CO2)C(F)(F)F (relative stereo) [Example 32, 3′-Chloro-4-fluoro-4′-[3,3,3-trifluoro-2-hydroxy-1-methyl-2-(4-methyl-3-oxo-3,4-dihydro-2H-benzo[1,4]oxazin-6-yl)-propyl]-biphenyl-3-carboxylic acid]
5 | 7.76 | COC(=O)c1ccc(-c2ccc([C@H](C)[C@](O)(c3ccc4c(c3)N(C)C(=O)CO4)C(F)(F)F)c(Cl)c2)c(F)c1 (relative stereo) [Example 33, 3′-Chloro-2-fluoro-4′-[3,3,3-trifluoro-2-hydroxy-1-methyl-2-(4-methyl-3-oxo-3,4-dihydro-2H-benzo[1,4]oxazin-6-yl)-propyl]-biphenyl-4-carboxylic acid methyl ester]
6 | 8.59 | COC(=O)c1ccc(-c2ccc([C@H](C)[C@](O)(c3ccc4c(c3)N(C)C(=O)CO4)C(F)(F)F)c(Cl)c2)cc1OC (relative stereo) [Example 35, 3′-Chloro-3-methoxy-4′-[3,3,3-trifluoro-2-hydroxy-1-methyl-2-(4-methyl-3-oxo-3,4-dihydro-2H-benzo[1,4]oxazin-6-yl)-propyl]-biphenyl-4-carboxylic acid methyl ester]
7 | 8.19 | COc1cc(-c2ccc([C@H](C)[C@](O)(c3ccc4c(c3)N(C)C(=O)CO4)C(F)(F)F)c(Cl)c2)ccc1C(=O)O (relative stereo) [Example 36, 3′-Chloro-3-methoxy-4′-[3,3,3-trifluoro-2-hydroxy-1-methyl-2-(4-methyl-3-oxo-3,4-dihydro-2H-benzo[1,4]oxazin-6-yl)-propyl]-biphenyl-4-carboxylic acid]
8 | 8.18 | C[C@@H](c1ccc(-c2ccc(CC(=O)O)cc2)cc1Cl)[C@](O)(c1ccc2c(c1)N(C)C(=O)CO2)C(F)(F)F (relative stereo) [Example 37, {3′-Chloro-4′-[3,3,3-trifluoro-2-hydroxy-1-methyl-2-(4-methyl-3-oxo-3,4-dihydro-2H-benzo[1,4]oxazin-6-yl)-propyl]-biphenyl-4-yl}-acetic acid]
9 | 8.74 | C[C@@H](c1ccc(-c2cc(C(=O)O)ccc2F)cc1Cl)[C@](O)(c1ccc2c(c1)N(C)C(=O)CO2)C(F)(F)F (relative stereo) [Example 38, 3′-Chloro-6-fluoro-4′-[3,3,3-trifluoro-2-hydroxy-1-methyl-2-(4-methyl-3-oxo-3,4-dihydro-2H-benzo[1,4]oxazin-6-yl)-propyl]-biphenyl-3-carboxylic acid]
10 | 9.15 | CCOC(=O)c1cc(-c2ccc([C@H](C)[C@](O)(c3ccc4c(c3)N(C)C(=O)CO4)C(F)(F)F)c(Cl)c2)ccc1Cl (relative stereo) [Example 39, 4,3′-Dichloro-4′-[3,3,3-trifluoro-2-hydroxy-1-methyl-2-(4-methyl-3-oxo-3,4-dihydro-2H-benzo[1,4]oxazin-6-yl)-propyl]-biphenyl-3-carboxylic acid ethyl ester]
11 | 8.82 | C[C@@H](c1ccc(-c2cccc(CC(=O)O)c2)cc1Cl)[C@](O)(c1ccc2c(c1)N(C)C(=O)CO2)C(F)(F)F (relative stereo) [Example 41, {3′-Chloro-4′-[3,3,3-trifluoro-2-hydroxy-1-methyl-2-(4-methyl-3-oxo-3,4-dihydro-2H-benzo[1,4]oxazin-6-yl)-propyl]-biphenyl-3-yl}-acetic acid]
12 | 6.58 | C[C@@H](c1ccc(C(=O)O)cc1Cl)[C@](O)(c1ccc2c(c1)N(C)C(=O)CO2)C(F)(F)F (relative stereo) [Example 43, 3-Chloro-4-[3,3,3-trifluoro-2-hydroxy-1-methyl-2-(4-methyl-3-oxo-3,4-dihydro-2H-benzo[1,4]oxazin-6-yl)-propyl]-benzoic acid]
13 | 8.49 | C[C@@H](c1ccc(Oc2ccc(CC(=O)O)cc2)cc1Cl)[C@](O)(c1ccc2c(c1)N(C)C(=O)CO2)C(F)(F)F (relative stereo) [Example 44, (4-{3-Chloro-4-[3,3,3-trifluoro-2-hydroxy-1-methyl-2-(4-methyl-3-oxo-3,4-dihydro-2H-benzo[1,4]oxazin-6-yl)-propyl]-phenoxy}-phenyl)-acetic acid]
14 | 8.68 | COC(=O)c1ccc(-c2ccc([C@H](C)[C@](O)(c3cc(F)c4c(c3)N(C)C(=O)CO4)C(F)(F)F)c(Cl)c2)cc1F (relative stereo) [Example 45, 3′-Chloro-3-fluoro-4′-[3,3,3-trifluoro-2-(8-fluoro-4-methyl-3-oxo-3,4-dihydro-2H-benzo[1,4]oxazin-6-yl)-2-hydroxy-1-methyl-propyl]-biphenyl-4-carboxylic acid methyl ester]
15 | 7.96 | C[C@@H](c1ccc(-c2ccc(C(=O)O)c(F)c2)cc1Cl)[C@](O)(c1cc(F)c2c(c1)N(C)C(=O)CO2)C(F)(F)F (relative stereo) [Example 46, 3′-Chloro-3-fluoro-4′-[3,3,3-trifluoro-2-(8-fluoro-4-methyl-3-oxo-3,4-dihydro-2H-benzo[1,4]oxazin-6-yl)-2-hydroxy-1-methyl-propyl]-biphenyl-4-carboxylic acid]
16 | 8.70 | CCOC(=O)COc1cc(-c2ccc([C@H](C)[C@](O)(c3cc(F)c4c(c3)N(C)C(=O)CO4)C(F)(F)F)c(Cl)c2)ccc1F (relative stereo) [Example 47, {3′-Chloro-4-fluoro-4′-[3,3,3-trifluoro-2-(8-fluoro-4-methyl-3-oxo-3,4-dihydro-2H-benzo[1,4]oxazin-6-yl)-2-hydroxy-1-methyl-propyl]-biphenyl-3-yloxy}-acetic acid ethyl ester]
17 | 7.18 | COC(=O)c1ccc(-c2ccc([C@@H](C)[C@@](O)(c3cccc4c3OCC(=O)N4C)C(F)(F)F)c(Cl)c2)cc1F (relative stereo) [Example 53, 3′-Chloro-3-fluoro-4′-[3,3,3-trifluoro-2-hydroxy-1-methyl-2-(4-methyl-3-oxo-3,4-dihydro-2H-benzo[1,4]oxazin-8-yl)-propyl]-biphenyl-4-carboxylic acid methyl ester]
18 | 6.89 | CCN1C(=O)COc2ccc([C@](O)([C@H](C)c3ccc(-c4ccc(C(=O)O)c(F)c4)cc3Cl)C(F)(F)F)cc21 (relative stereo) [Example 65, 3′-Chloro-4′-[2-(4-ethyl-3-oxo-3,4-dihydro-2H-benzo[1,4]oxazin-6-yl)-3,3,3-trifluoro-2-hydroxy-1-methyl-propyl]-3-fluoro-biphenyl-4-carboxylic acid]
